Reference: ChEMBL document CHEMBL1142978, “Probing the anticancer activity of nucleoside analogues: a QSAR model approach using an internally consistent training set” (J Med Chem, 2007)
pIC50: −log10 of the molar value.

experiment: Cytotoxicity against mouse L1210/0 cells after 48 hrs; assay type: cell-based; settings: Mus musculus, L1210/0, 48 h

**Q.** With `C[C@H](O)C1CC(Cn2cnc3c(N)ncnc32)C1(C)C` (stereo not given in full) as the compound, how does the pIC50 read?
**A.** The pIC50 was less than 3.70.

**Q.** With `CCCNc1ncnc2c1ncn2C[C@@H]1C[C@H](CO)c2ccccc21` as the compound, how does the pIC50 read?
**A.** The pIC50 was less than 3.70.

**Q.** With `CC1(C)[C@@H](CCCO)C[C@H]1n1nnc2c(=O)[nH]c(N)nc21` as the compound, how does the pIC50 read?
**A.** Its pIC50 is less than 3.70.

**Q.** With `CC#Cc1cn([C@H]2C[C@H](O)[C@@H](CO)O2)c(=O)[nH]c1=O` as the compound, how does the pIC50 read?
**A.** The pIC50 was less than 3.70.

**Q.** With `Nc1ncnc2c1ncn2C1OC(C(O)O)[C@H](O)[C@H]1O` (single isomer, unassigned) as the compound, how does the pIC50 read?
**A.** The pIC50 was less than 3.70.

**Q.** With `COc1ccc(C(=O)/C=C/c2cc(=O)[nH]c(=O)n2COCCO)cc1` as the compound, how does the pIC50 read?
**A.** Its pIC50 is 4.48.

**Q.** With `O=c1[nH]cnc2c1ncn2[C@@H]1C[C@@H]2COC[C@H]2[C@H]1CO` as the compound, how does the pIC50 read?
**A.** Its pIC50 is less than 3.70.

**Q.** With `O=C1NCN([C@@H]2O[C@H](COP3OCCC(O)O3)[C@@H](O)C2=O)C=C1F` (stereo not given in full) as the compound, how does the pIC50 read?
**A.** Its pIC50 is 6.08.

**Q.** With `CC1(C)[C@@H](CO)CC[C@@]1(C)Cn1cc(I)c(=O)[nH]c1=O` as the compound, how does the pIC50 read?
**A.** The pIC50 was less than 3.70.

**Q.** With `OC[C@H]1C[C@@H](Cn2cnc3c(NC4CC4)ncnc32)c2ccccc21` as the compound, how does the pIC50 read?
**A.** Its pIC50 is less than 3.70.

**Q.** With `Nc1ncnc2c1ncn2CCOCP(=O)(O)O` [ADEFOVIR] as the compound, how does the pIC50 read?
**A.** Its pIC50 is 5.13.

**Q.** With `Nc1ncnc2c1nnn2C[C@H]1CCC[C@H]1CO` as the compound, how does the pIC50 read?
**A.** Its pIC50 is less than 3.70.

**Q.** With `Nc1ncnc2c1nnn2[C@@H]1C[C@H](CO)[C@@H](CO)[C@H]1CO` as the compound, how does the pIC50 read?
**A.** The pIC50 was less than 3.70.

**Q.** With `Nc1ncnc2c1ncn2[C@@H]1CCC[C@H]1CO` as the compound, how does the pIC50 read?
**A.** Its pIC50 is less than 3.70.

**Q.** With `O=c1[nH]c(=O)n([C@H]2C[C@H](O)[C@@H](CO)O2)cc1C(F)(F)F` [TRIFLURIDINE] as the compound, how does the pIC50 read?
**A.** The pIC50 was 7.70.

**Q.** With `Nc1ncnc2c1ncn2C1C[C@@H](CO)[C@@H](CO)C1` (stereo not given in full) as the compound, how does the pIC50 read?
**A.** The pIC50 was less than 3.70.

**Q.** With `CC(O)Cn1cnc2c(Cl)nc(I)nc21` (stereo not given) as the compound, how does the pIC50 read?
**A.** Its pIC50 is less than 3.70.

**Q.** With `CC(=O)OC(C)Cn1cnc2c(=S)[nH]c(N)nc21` (stereo not given) as the compound, how does the pIC50 read?
**A.** Its pIC50 is 3.89.

**Q.** With `COC1=C(OC)/C(=C/CP(=O)(OC)OC)OC1=O` as the compound, how does the pIC50 read?
**A.** Its pIC50 is less than 3.70.

**Q.** With `CC(O)Cn1cnc2c(F)nc(N)nc21` (stereo not given) as the compound, how does the pIC50 read?
**A.** The pIC50 was less than 3.70.

**Q.** With `O=c1[nH]c(=O)n([C@H]2C[C@H](O)[C@@H](CO)O2)cc1C#CCCO` as the compound, how does the pIC50 read?
**A.** The pIC50 was less than 3.70.

**Q.** With `COc1ccc(-c2ncnc3c2ncn3C[C@@H]2C[C@H](CO)c3ccccc32)cc1` as the compound, how does the pIC50 read?
**A.** The pIC50 was 4.75.

**Q.** With `O=C1O/C(=C\Cn2cc(F)c(=O)[nH]c2=O)C(OCc2ccccc2)=C1OCc1ccccc1` as the compound, how does the pIC50 read?
**A.** The pIC50 was 5.29.

**Q.** With `O=C(CI)NCc1cn([C@H]2C[C@H](O)[C@@H](CO)O2)c(=O)[nH]c1=O` as the compound, how does the pIC50 read?
**A.** Its pIC50 is 3.97.

**Q.** With `Nc1ncnc2c1ncn2[C@@H]1C[C@@H]2COC[C@H]2[C@H]1CO` as the compound, how does the pIC50 read?
**A.** The pIC50 was less than 3.70.

**Q.** With `Cc1ccc(-c2ncnc3c2ncn3C[C@@H]2C[C@H](CO)c3ccccc32)cc1` as the compound, how does the pIC50 read?
**A.** Its pIC50 is 4.81.

**Q.** With `COC1=C(OC)/C(=C/C(n2cnc3c(Cl)ncnc32)P(=O)(OC)OC)OC1=O` (stereo not given) as the compound, how does the pIC50 read?
**A.** Its pIC50 is 4.42.

**Q.** With `O=c1[nH]c(=O)n([C@@H]2C[C@H](CO)C[C@@H]2CO)cc1I` as the compound, how does the pIC50 read?
**A.** Its pIC50 is less than 3.70.

**Q.** With `O=c1[nH]c(=O)n([C@H]2C[C@H](O)[C@@H](CO)O2)cc1C#CCCCO` as the compound, how does the pIC50 read?
**A.** The pIC50 was less than 3.70.

**Q.** With `COc1nc(I)nc2c1ncn2COCCO` as the compound, how does the pIC50 read?
**A.** The pIC50 was less than 3.70.

**Q.** With `O=C1O/C(=C\Cn2ccc(=O)[nH]c2=O)C(OCc2ccccc2)=C1OCc1ccccc1` as the compound, how does the pIC50 read?
**A.** The pIC50 was 4.89.

**Q.** With `Nc1nc2c(nc(I)n2COCCO)c(=O)[nH]1` as the compound, how does the pIC50 read?
**A.** The pIC50 was 3.95.

**Q.** With `OCCOCn1cnc2c(S)nc(F)nc21` as the compound, how does the pIC50 read?
**A.** Its pIC50 is 3.77.

**Q.** With `O=c1[nH]c(=O)n(CC2CCC(CO)C2)cc1I` (stereo not given) as the compound, how does the pIC50 read?
**A.** Its pIC50 is less than 3.70.

**Q.** With `O=c1[nH]c(=O)n(COCCO)cc1I` as the compound, how does the pIC50 read?
**A.** The pIC50 was less than 3.70.

**Q.** With `CN(C)c1nc2c(=O)[nH]c(N)nc2n1COCCO` as the compound, how does the pIC50 read?
**A.** The pIC50 was less than 3.70.

**Q.** With `O[C@H]1C[C@@H](Cn2cnc3c(-c4ccccc4)ncnc32)c2ccccc21` as the compound, how does the pIC50 read?
**A.** Its pIC50 is less than 3.70.

**Q.** With `Nc1nc(O)c2nnn([C@H]3CCCC[C@H]3CO)c2n1` as the compound, how does the pIC50 read?
**A.** The pIC50 was less than 3.70.

**Q.** With `O=c1[nH]c(=O)n([C@H]2C[C@H](O)[C@@H](CO)O2)cc1C1SCCS1` as the compound, how does the pIC50 read?
**A.** Its pIC50 is less than 3.70.

**Q.** With `CS(=O)(=O)Cc1cn([C@H]2C[C@H](O)[C@@H](CO)O2)c(=O)[nH]c1=O` as the compound, how does the pIC50 read?
**A.** Its pIC50 is less than 3.70.

**Q.** With `CC(=O)OCCOCn1cnc2c(Cl)ncnc21` as the compound, how does the pIC50 read?
**A.** The pIC50 was 3.79.

**Q.** With `O=C1C(O)=C(O)O/C1=C\Cn1cc(F)c(=O)[nH]c1=O` as the compound, how does the pIC50 read?
**A.** Its pIC50 is 5.29.

**Q.** With `CC1(C)[C@@H](CO)CC[C@@]1(C)Cn1cnc2c(Cl)ncnc21` as the compound, how does the pIC50 read?
**A.** The pIC50 was 4.37.

**Q.** With `CC1=C(c2cn([C@H]3C[C@H](O)[C@@H](CO)O3)c(=O)[nH]c2=O)C(=O)c2ccccc2C1=O` as the compound, how does the pIC50 read?
**A.** Its pIC50 is 4.16.

**Q.** With `C[C@@]1(CO)O[C@H](c2cc(F)c(N)cc2F)C[C@@H]1O` as the compound, how does the pIC50 read?
**A.** Its pIC50 is less than 3.70.

**Q.** With `O=c1[nH]c(=O)n([C@H]2C[C@H](O)[C@@H](CO)O2)cc1[N+](=O)[O-]` as the compound, how does the pIC50 read?
**A.** Its pIC50 is 6.89.

**Q.** With `CC1(C)[C@@H](Cn2cnc3c(Cl)nc(N)nc32)CC[C@@]1(C)CO` as the compound, how does the pIC50 read?
**A.** The pIC50 was 4.30.

**Q.** With `COC1=C(OC)C(O)(CCn2cnc3c(Cl)ncnc32)OC1=O` (stereo not given) as the compound, how does the pIC50 read?
**A.** The pIC50 was less than 3.70.

**Q.** With `O=c1[nH]c(=O)n(COCCO)cc1/C=C/Br` as the compound, how does the pIC50 read?
**A.** Its pIC50 is less than 3.70.

**Q.** With `OC[C@@H]1CCC[C@H]1n1cnc2c(O)ncnc21` as the compound, how does the pIC50 read?
**A.** The pIC50 was less than 3.70.

**Q.** With `O=C1O/C(=C\Cn2cnc3c(Cl)ncnc32)C(OCc2ccccc2)=C1OCc1ccccc1` as the compound, how does the pIC50 read?
**A.** The pIC50 was 4.94.

**Q.** With `C=Cc1cn([C@H]2C[C@H](O)[C@@H](CO)O2)c(=O)[nH]c1=O` as the compound, how does the pIC50 read?
**A.** Its pIC50 is 4.85.

**Q.** With `O=c1[nH]cnc2c1nnn2[C@@H]1C[C@H](CO)[C@@H](CO)[C@H]1CO` as the compound, how does the pIC50 read?
**A.** The pIC50 was less than 3.70.

**Q.** With `CC1(C)[C@@H](CO)CC[C@@]1(C)Cn1cnc2c(N)ncnc21` as the compound, how does the pIC50 read?
**A.** Its pIC50 is less than 3.70.

**Q.** With `CCCCCC(=O)O[C@@H]1[C@H](OC(=O)CCCCC)CO[C@@H](OC)[C@@]1(F)n1ccc(=O)[nH]c1=O` as the compound, how does the pIC50 read?
**A.** Its pIC50 is 4.40.

**Q.** With `OC[C@@H]1CCC[C@H]1Cn1cnc2c(O)ncnc21` as the compound, how does the pIC50 read?
**A.** The pIC50 was less than 3.70.

**Q.** With `Nc1ncnc2c1ncn2[C@@H]1O[C@H](/C=C\I)[C@H](O)[C@@H]1O` as the compound, how does the pIC50 read?
**A.** The pIC50 was 4.37.

**Q.** With `CC1(C)[C@@H](CCCO)C[C@H]1n1nnc2c(Cl)nc(N)nc21` as the compound, how does the pIC50 read?
**A.** Its pIC50 is less than 3.70.

**Q.** With `CO[C@@H]1OC[C@@H](OC(C)=O)[C@@H](OC(C)=O)[C@]1(F)n1ccc(=O)[nH]c1=O` as the compound, how does the pIC50 read?
**A.** The pIC50 was 4.26.

same assay, conditions: l1210/0

**Q.** With `Nc1ncnc2c1ncn2[C@@H]1O[C@H](/C=N/O)[C@@H](O)[C@H]1O` (stereo in doubt; 82) as the compound, how does the pIC50 read?
**A.** Its pIC50 is 4.43.
